Experimental data: patent US12509446B2, “FYN and VEGFR2 kinase inhibitors” (ROTTAPHARM BIOTECH S.R.L., priority 2019, dated 2025)

Key:
[1] = system: IL-1β; experiment: Gene expression in rat articular chondrocytes under IL-1β stimulation, IL-1β; format: cell-based; settings: Rattus norvegicus, Chondrocyte; 6 h incubation
Procedure, shortened: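 Primary rat articular chondrocytes, 10 days after plating, serum-reduced (DMEM 0.4%), co-treated with compounds and IL-1β 2 ng/ml; top concentration set by chondrocyte toxicity. TaqMan RT-PCR normalised to 18S; IL-1β and ADAMTS-5 read at 6 h, MMP3 and MMP13 at 24 h.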

[2] = molecular target: VEGFR2 (Homo sapiens (Human), UniProt P35968); experiment: ADP-Glo kinase assay at high ATP concentration (0.5 mM), VEGFR2; format: biochemical; settings: ATP 0.5 mM; read-out: VEGFR2 IC50 in the presence of high ATP concentration
Procedure: The inhibition of Fyn and VEGFR2 kinase activity was evaluated in the presence of a fixed ATP concentration (0.5 mM), near to the millimolar range present in cells. The assay was performed by The ADP-Glo™ Kinase Assay (Promega), monitoring ADP produced in the kinase reaction. Kinase reaction was performed in 10 μl, according to supplier indication, in a white 384-well plate.
Inhibitor solutions in DMSO/Kinase buffer and the kinase (Fyn 2.5 ng/μl and VEGFR2 0.5 ng/μl final concentration in assay) were pre-incubate 15 minutes at room temperature. The range of inhibitor concentrations was from 10^−10 M up to 10^−5 M (final concentration in assay). To start the reaction, a substrate/ATP mix (0.5 mM final concentration, corresponding to 10× ATP KM value) was added to each sample. After 60 minutes incubation at room temperature, ADP-Glo™ Reagent and Kinase Detection Reagent, added and incubated in sequence according to supplier indication, allowed to stop and develop the kinase reaction. The percentage of inhibition, calculated towards the enzymatic activity in the absence of test compound, and the corresponding inhibition curves were analyzed by non-linear curve fitting (GraphPad software, version 7 for Windows), allowing to calculate the IC50 value.

[3] = system: bovine nasal septum cartilage; experiment: Inhibition of cartilage degradation (GAG release) induced by IL-1α in a bovine in vitro model; format: cell-based
Procedure, shortened: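 Cartilage punches (2 mm) from an 8-month-old male bovine nasal septum were cultured 48 h, then stimulated 48 h with IL-1α […] ± compound in DMEM + 0.1% BSA. Compound doses were set from 48 h rat chondrocyte toxicity. GAG in medium and papain-digested tissue was measured by DMB absorbance at 590 nm; degradation = medium GAG/total GAG × 100.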

[4] = system: IL-6; experiment: Gene expression in rat articular chondrocytes under IL-1β stimulation, IL-6; format: cell-based; settings: Rattus norvegicus, Chondrocyte; 6 h incubation
[5] = molecular target: VEGFR (Homo sapiens (Human), UniProt P35968); experiment: Inhibition of VEGF-induced VEGFR (Y1175)-phosphorylation in HUVEC-C cells; format: cell-based; settings: starting from the concentration of 0.01 μM; VEGF 50 ng/ml
Procedure: HUVEC-C cells (Human Umbilical Vein Endothelial Cells from ATCC) were plated at 6×10^4 cells/well in 24 w microplates and grown adherent in medium F12K+0.1 mg/ml Heparin+0.05 mg/ml ECGS+10% FBS at 37° C. with 5% CO2. After 24 h, medium was removed and starvation was induced overnight in medium F12K+0.1 mg/ml Heparin+0.5% FBS (medium starvation). At the end of incubation, treatment of cells was performed by medium replacement and by adding fresh medium starvation containing or not diluent (DMSO 0.1% final concentration), or test compound (range 10^−8 M-10^−5 M). After 1 hour, VEGF stimuli (50 ng/ml final concentration) was added to each sample, with the exception of “basal-no stimulus” sample; plate was then incubated for 5 min at 37° C. with 5% CO2. At the end of the incubation, the medium was removed and cellular lysates, obtained by adding M-PER lysis/Protease/Phosphatase inhibitors cocktail. Then, lysates were transferred into Eppendorf tubes, sonicated and stored at −80° C.
Lysates were analyzed by Western blot for VEGFR phosphorylation (Tyrosine 1175) and total receptor amount determination. Densitometric analysis of sample lanes were performed by ImageQuant TL software (GE Healthcare Life Sciences). Each sample value was normalized by respective actin; resulting data were used to calculate inhibitory effect of compounds with respect to stimuli control (absence of inhibitor).

[6] = molecular target: Fyn-NanoLuc fusion protein (Homo sapiens (Human), UniProt P06241); experiment: NanoBRET intracellular target engagement of Fyn in HEK293 transfected cells; format: cell-based; settings: 2 hours treatment, tracer 0.33 μM, read-out: IC50 binding value towards the Fyn-NanoLuc fusion protein
Procedure: The NanoBRET™ TE intracellular kinase assay K-4 (Promega, #N2520) was used to determine the intracellular target engagement of Fyn kinase in HEK293 cells (ATCC®, Cat. CRL-1573) transiently transfected with Fyn-NanoLuc® fusion vector (Promega, #NV1411), therefore expressing the Fyn-NanoLuc© fusion protein. The tracer was used at the final concentration of 0.33 μM, and the treatment of cells with Compounds was performed for 2 hours. Luminescence values were measured at 450 nm and 610 nm (GloMax® Discover, Promega) and raw BRET ratio values for each sample were determined. Compounds that specifically engage the intracellular target protein-NanoLuc® fusion will result in a decrease in BRET signal and in lower BRET ratio values

[7] = system: CFA induced hyperalgesia; experiment: Complete Freund Adjuvant (CFA)-induced inflammatory pain in rats; format: in vivo, rat; settings: intra-dermal
[8] = molecular target: human FynB (Homo sapiens, UniProt P06241); experiment: Inhibition of FynB-induced Tau(Y18)-phosphorylation in HEK293 cells; format: cell-based
Procedure: After 24 h, cells were transfected in order to over-express either constitutively active form of human FynB and Tau protein (isoform 0N4R), through an optimized Lipofectamine®3000 Transfection protocol (Life Technologies™). A non-transfected sample (negative control) was included in every experiment. Twenty-four hours from transfection, treatments of cells were performed by adding fresh medium containing diluent (DMSO 0.1% final concentration) or test compounds. The incubation was carried out for 6 or 24 hours at 37° C. with 5% CO2. At the end of the incubation, the medium was removed and cellular lysates, obtained by adding M-PER lysis/Protease/Phosphatase inhibitors cocktail, were transferred into Eppendorf tubes, sonicated and stored at −80° C. Protein content was measured by Bradford method. Lysates were analyzed either by customized ELISA assays for Tau phosphorylation (Tyrosine 18 residue—Fyn mediated) and Tau-Total amount determination.

Chain of human FynB (P06241 2-537 limits assumed): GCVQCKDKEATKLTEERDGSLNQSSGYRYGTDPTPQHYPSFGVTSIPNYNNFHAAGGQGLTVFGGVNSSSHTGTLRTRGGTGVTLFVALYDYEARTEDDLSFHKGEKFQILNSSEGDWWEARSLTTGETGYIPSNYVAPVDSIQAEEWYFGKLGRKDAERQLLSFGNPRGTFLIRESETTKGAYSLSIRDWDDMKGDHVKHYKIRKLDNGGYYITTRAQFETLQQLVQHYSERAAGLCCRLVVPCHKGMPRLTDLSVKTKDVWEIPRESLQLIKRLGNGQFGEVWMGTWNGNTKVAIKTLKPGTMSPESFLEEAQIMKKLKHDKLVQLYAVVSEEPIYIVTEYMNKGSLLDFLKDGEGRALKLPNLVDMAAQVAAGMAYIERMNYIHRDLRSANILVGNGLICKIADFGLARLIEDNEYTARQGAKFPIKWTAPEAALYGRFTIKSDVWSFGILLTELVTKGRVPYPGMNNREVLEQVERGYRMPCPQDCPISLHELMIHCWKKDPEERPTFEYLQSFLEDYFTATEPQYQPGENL
Chain of VEGFR2 (P35968 20-1356): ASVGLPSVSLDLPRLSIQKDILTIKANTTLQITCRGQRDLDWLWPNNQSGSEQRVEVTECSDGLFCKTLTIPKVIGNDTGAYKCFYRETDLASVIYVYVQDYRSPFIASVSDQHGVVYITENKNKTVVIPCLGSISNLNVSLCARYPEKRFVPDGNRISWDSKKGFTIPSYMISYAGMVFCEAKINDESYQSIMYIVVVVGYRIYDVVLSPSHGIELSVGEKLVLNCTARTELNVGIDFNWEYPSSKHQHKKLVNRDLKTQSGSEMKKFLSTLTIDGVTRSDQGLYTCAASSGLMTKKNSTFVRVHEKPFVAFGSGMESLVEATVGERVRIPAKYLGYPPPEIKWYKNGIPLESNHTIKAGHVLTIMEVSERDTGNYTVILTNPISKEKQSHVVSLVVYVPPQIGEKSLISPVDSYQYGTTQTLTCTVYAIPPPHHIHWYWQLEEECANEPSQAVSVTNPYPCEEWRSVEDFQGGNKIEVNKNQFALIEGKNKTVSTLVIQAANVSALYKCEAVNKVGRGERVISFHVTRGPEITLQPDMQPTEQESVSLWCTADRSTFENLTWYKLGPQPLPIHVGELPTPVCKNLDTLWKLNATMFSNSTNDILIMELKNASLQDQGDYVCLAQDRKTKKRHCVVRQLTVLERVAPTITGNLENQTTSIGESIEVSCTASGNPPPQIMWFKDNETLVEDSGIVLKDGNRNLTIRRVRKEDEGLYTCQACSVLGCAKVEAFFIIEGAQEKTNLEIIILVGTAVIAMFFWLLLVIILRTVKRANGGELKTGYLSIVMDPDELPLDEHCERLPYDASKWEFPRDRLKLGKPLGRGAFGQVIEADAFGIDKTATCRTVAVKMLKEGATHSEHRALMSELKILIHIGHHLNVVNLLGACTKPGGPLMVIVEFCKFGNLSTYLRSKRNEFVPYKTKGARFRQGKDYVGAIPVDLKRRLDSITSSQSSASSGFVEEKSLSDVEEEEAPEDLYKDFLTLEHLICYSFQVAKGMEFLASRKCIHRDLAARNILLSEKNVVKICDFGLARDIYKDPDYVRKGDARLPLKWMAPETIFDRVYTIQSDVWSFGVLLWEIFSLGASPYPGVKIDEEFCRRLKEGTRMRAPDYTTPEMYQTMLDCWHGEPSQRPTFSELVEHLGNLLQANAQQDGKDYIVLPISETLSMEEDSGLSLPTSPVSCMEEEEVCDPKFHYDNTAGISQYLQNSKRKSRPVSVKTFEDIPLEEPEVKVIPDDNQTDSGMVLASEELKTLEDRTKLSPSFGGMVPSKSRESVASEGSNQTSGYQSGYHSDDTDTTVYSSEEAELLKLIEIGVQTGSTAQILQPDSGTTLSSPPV
Chain of VEGFR (P35968 20-1356): as above
Chain of Fyn-NanoLuc fusion protein (P06241 whole entry, the tested form may be a part): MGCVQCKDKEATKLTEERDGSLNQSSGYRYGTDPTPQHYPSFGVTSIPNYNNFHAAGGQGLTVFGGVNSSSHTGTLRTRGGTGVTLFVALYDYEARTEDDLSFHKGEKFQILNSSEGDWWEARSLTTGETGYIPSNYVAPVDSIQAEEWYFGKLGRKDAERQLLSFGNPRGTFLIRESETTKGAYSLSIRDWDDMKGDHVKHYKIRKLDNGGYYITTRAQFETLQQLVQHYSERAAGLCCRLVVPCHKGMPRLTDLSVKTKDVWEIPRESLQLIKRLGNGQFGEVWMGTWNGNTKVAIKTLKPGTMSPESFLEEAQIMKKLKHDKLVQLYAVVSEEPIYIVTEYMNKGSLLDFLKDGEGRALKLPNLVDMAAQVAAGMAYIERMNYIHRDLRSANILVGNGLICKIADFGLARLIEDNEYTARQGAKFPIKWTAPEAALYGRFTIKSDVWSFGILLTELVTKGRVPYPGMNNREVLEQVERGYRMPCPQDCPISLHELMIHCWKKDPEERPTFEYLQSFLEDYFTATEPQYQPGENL

Cc1ccc(NC(=O)c2cccc(C(F)(F)F)c2)cc1CCc1cc(Nc2cnccn2)[nH]n1 [Compound 3, N-(4-methyl-3-(2-(5-(pyrazin-2-ylamino)-1H-pyrazol-3-yl)ethyl)phenyl)-3-(trifluoromethyl)benzamide]
IC50 [1]: 2 nM | IC50 [2]: 58 nM | inhibition at 1 µM ([3]; Bos taurus, 1 μM, read-out: Bovine cartilage degradation induced by IL-1α, % inhibitory effect at max concentration): 100% | Inhibitory effect on the GAG release ([3]; at max concentration): 95-100% | IC50 [4]: 18 nM | Inhibitory activity on VEGFR-phosphorylation at Y1175 residue [5]: complete inhibitory activity | IC50 [6]: 1500 nM | Effect on normal nociception in naïve animals ([7]; 3 μM (140 ng/paw), no CFA challenge): did not modify the normal nociception | Effect on pain behavior in CFA inflamed animals (mechanical pain threshold) ([7]; maximal concentration of 3 μM (140 ng/paw)): completely reverted the pain behavior | Effect on Tau-protein total amount [8]: Moderate not significant effect | Mean percentage of inhibition of Tau(Y18)-phosphorylation ([8]; after 24 hours of treatment): 95% | IC50 ([8]; read-out: Inhibition of FynB-induced Tau(Y18)-phosphorylation IC50, after 6 hours of treatment): 131 nM
